Patent US12285034B2, “Human and non-human animal use of microbial anaplerotic oil” (HELIAE DEVELOPMENT, LLC, priority 2017, dated 2025)
Read-outs that look alike come from different tables or passages of the source.

What was measured:
[1] = test system: mold and bacteria; settings: low levels; cited from earlier work
[2] = test system: Y. lipolytica; assay: Model of cytoplasmic propionate in Yarrowia lipolytica; settings: 2 g/L d propionic fed, pH 3
Source text: In this aspect, while the propionate and free proton form enters the microalgae cell through a monocarboxylic symport structure, propionic acid is membrane permeable and may be diffused directly into the microalgae cell. Therefore, in this aspect, the uptake of propionate can be controlled by the cell, and the uptake of propionic acid may not be controlled by the cell. As an example, the uncontrolled uptake of propionic acid presumably lowers the internal Aurantiochytrium cell pH; in turn, the cell attempts to maintain its pH homeostasis by pumping protons out of the cell. […] In one implementation, the change in pH may be calculated with the following equation derived from the Henderson and Hasselbalch equation: […]
In these implementations, the results illustrate that growth of the Y. lipolytica may not be affected by up to 2 g/L d propionic fed despite the low pH (3) present.

[3] = test system: Aurantiochytrium acetophilum HS399; assay: Single vs two-stage fermentation with propionic acid (Example 12); assay type: cell-based; settings: propionic acid fed
Source text: Further, in this implementation, during the lipid phase, no additional nitrogen is fed, and the cell accumulated the lipids. In the single stage mode, half of the nitrogen (2.5 g/L NH3) can be batch fed, while the other half (2.5 g/L NH3) can be fed along with the glucose until the end of the fermentation. In this implementation, both treatments receive substantially the same nutrients; however, the single stage mode grows and accumulates lipids in a coordinated way throughout the fermentation. The single stage system can be characterized by an early lipid accumulation. […] Each of the four treatments can be cultured in duplicate (n=2) fermenters. […] As illustrated, propionic acid slows down the growth on both systems, but the two-stage system provides a better growth rate than the single stage system in the presence of propionate. […] This implementation illustrates that the traditional two stage approach to lipid accumulation may be preferable to produce OCFAs.

[4] = test system: Aurantiochytrium acetophilum HS399; assay type: cell-based
Source text: In another implementation, a New Brunswick 10 L Bioflo Pro 300 fermenter (Eppendorf) can be used to provide an improvement in the productivity of OCFAs accumulation, previously identified in flasks and bubble columns. In this implementation, a bioprocess can be devised to incorporate one or more portions of one or more techniques described herein. […] As an example, in this implementation, the pH-auxostat is operated at a pH set point of 6.5 to mitigate propionic toxicity. […] A control treatment can be provided […] propionate, to be used as comparison. […] The fermenters are aerated at 0.5 vvm and are maintained at 27° C. under axenic conditions. […] This medium can also contain a trace element solution (25 ml/L) and vitamin solution (5 ml/L). The trace element solution contains (g/L): […] In this example, the fermenter is fed another 5-6 L of a medium containing (g/L): ammonium phosphate (2.5), ammonium hydroxide (29% pure) (15.2), corn syrup DE95 (1143). This medium can also contain a trace element solution (25 ml/L) and a vitamin solution (5 ml/L). In this example, this medium is fed in a DO-stat mode in response to dissolved oxygen values detected above 15% saturation. […] The pH is maintained at 5.8 using NaOH, while the batch ammonia is consumed. The pH can drift to higher values when the residual ammonia is substantially exhausted from the fermenter. […] Culture materials and media can be autoclaved (e.g., 121° C., 15 min) while separating the nitrogen and the carbon source. Foam can be controlled (e.g., automatically) through the addition of (<1 ml/L) Hodag antifoam. […] Residual glucose can be analyzed from culture supernatant (e.g., 5000 g; 5 min) using a colorimetric method based on glucose […] activity. Residual acetate and propionate can be analyzed by HPLC using an acceptable external standard.

[5] = test system: Yarrowia lipolytica ATCC18944; assay type: cell-based; settings: for Total Fatty Acids / Total Lipids: 168 h
Method: Culture conditions. In one implementation, Yarrowia lipolytica ATCC18944 can be cultivated in triplicates (n=3) in a medium containing (g/L): glycerol (80), monosodium […]), yeast extract (1), NaCl (12.5), MgSO4 (7), H2O (2.5), KCl (0.5), CaCl2 (0.1), KH2PO4 (0.5), trace metal solution (5 mL) and vitamin solution (1 mL). The trace element solution may contain (g/L): […] The vitamin solution can be filter-sterilized (e.g., using 0.2 μm pore size filter) containing (mg L-1): thiamine (100), biotin (0.5) and cyanocobalamin (0.5) unless otherwise stated. In some implementations cyanocobalamin might be added to or subtracted from the medium formulation to change or impact propionic acid deposition in OCFA. […] In one implementation, a concentration of the cyanocobalamin and/or cobalt in the culture medium can be below 0.4 μM. […] The flasks can be incubated in the dark in an orbital shaker at 180 rpm, 27° C. In this implementation, sodium propionate is fed batch every day according to respective treatments. […] Analyses. Cell dry weights can be obtained by drying samples that are previously vacuum filtrated (e.g., using 0.2 μm pore size filters). Residual propionate is analyzed directly by high performance liquid chromatography (HPLC). Lipids and total fatty acids are analyzed using a direct extraction, transesterification followed by gas chromatography (GC) and detection by flame ionization (FID). The different fatty acids are identified and quantified using appropriate internal and external standards. Propionic acid deposition rate.

[6] = test system: Aurantiochytrium acetophilum HS399; assay: Propionate concentration and OCFA titers, flask (Example 13); assay type: cell-based; settings: 96 h
Source text: The trace element solution contains (g/L): […] The vitamin solution contains (mg/L): thiamine (100) and biotin (0.5). […] The washed biomass is freeze dried.

[7] = daily propionate 0+0+1+1+1+1 g/L
[8] = daily propionate 0+0+2+2+2+2 g/L
[9] = 192 h, itaconic acid 0 / propionate 6 g/L

SMILES: CCC(=O)O [Propionate, propionic acid]
- level inhibiting growth of mold and bacteria [1]: < 1 % by weight
- accumulation of cytoplasmic propionate [2]: 328 g/L
- Productivity ([3]; single stage, 96 h): 20.7 g/L/day
- Biomass Yield ([3]; single stage, batch time 96 h): 82.5 g/L
- Productivity ([3]; two stage, 89 h): 34.1 g/L/day
- Biomass Yield ([3]; two stage, batch time 89 h): 125.8 g/L
- effect on growth [4]: slightly inhibited
- OCFAs ([4]; propionic acid titration): 60 % TFA
- accumulated lipids ([4]; propionic acid titration): 70 % DW
- average cumulative productivities ([4]; propionic acid titration): approximately 30 g/L/d
- productivity of OCFAs ([4]; propionic acid titration): 10 g/L/day
- Cell dry weight ([4]; propionic acid titration, 10 L fermenter): 170 g/L
- consumption of propionic per gram of biomass ([4]; total consumed during process): 0.155 g
- daily propionic feed not affecting growth [5]: up to 2 g/L d
- Total Fatty Acids [5, 7]: 17.3 ± 1.6 % DW
- Total Lipids [5, 7]: 19.0 ± 0.0 % DW
- Total Fatty Acids [5, 8]: 16.2 ± 0.5 % DW
- Total Lipids [5, 8]: 18.3 ± 0.6 % DW
- Total Fatty Acids ([5]; daily propionate 0 + 0.6 g/L): 21.3 ± 2.8 % DW
- Total Lipids ([5]; daily propionate 0 + 0.6 g/L): 21.7 ± 3.2 % DW
- Total Fatty Acids ([5]; daily propionate 0.3 + 0.3 g/L): 21.7 ± 2.5 % DW
- Total Lipids ([5]; daily propionate 0.3 + 0.3 g/L): 23.7 ± 3.5 % DW
- Cell dry weight [5, 9]: 8.3 ± 1.2 g/L
- Consumed propionate [5, 9]: 5.1 ± 1.5 g/L
- Odd chain fatty acids [5, 9]: 1.3 ± 0.5 % DW
- Propionic acid deposition [5, 9]: 0.6 ± 0.1%
- growth on propionate as sole carbon source ([5]; FIG. 25): able to grow
- Consumed propionate ([5]; cyanocobalamin 0 μM): 2.6 g/L
- Propionate deposition ([5]; cyanocobalamin 0 μM): 0.99%
- Consumed propionate ([5]; cyanocobalamin 0.00037 μM): 1.7 g/L
- Propionate deposition ([5]; cyanocobalamin 0.00037 μM): 0.83%
- Cell dry weight ([5]; propionate 0+0+2+2+2+2 g/L d, cyanocobalamin 0 μM): 6.0 g/L
- Cell dry weight ([5]; propionate 0+0+2+2+2+2 g/L d, cyanocobalamin 0.00037 μM): 5.3 g/L
- propionic acid deposition rates in OCFAs ([5]; relatively low): < 3 % TFA
- OCFAs ([5]; total propionate fed batch 8 g/L): 0.33 g/L
- OCFA ([6]; propionate 2 g/L): 30.7 ± 1.8 % TFA
- Total Fatty Acids ([6]; propionate 2 g/L): 54.8 ± 5.6 % DW
- OCFA ([6]; propionate 3 g/L): 50.8 ± 1.1 % TFA
- Total Fatty Acids ([6]; propionate 3 g/L): 56.2 ± 0.6 % DW
- OCFA ([6]; propionate 4 g/L): 63.0 ± 2.5 % TFA
- Total Fatty Acids ([6]; propionate 4 g/L): 39.2 ± 12.4 % DW
- OCFA ([6]; propionate 5 g/L): 64.6 ± 0.3 % TFA
- Total Fatty Acids ([6]; propionate 5 g/L): 41.0 ± 3.4 % DW
